Source: US20190022089A1, “PHARMACEUTICAL COMPOSITIONS AND DOSAGE FORMS” (Ignyta, Inc., priority 2017, published 2019)

Columns and labels:
[1] = Suitability of acids in 1:1 admixture: storage stability (appearance, HPLC); type: physicochemical; settings: for Most abundant impurity (area %): three months storage, HPLC
Experimental: The mixtures were prepared in duplicate for each sample, and stored in open top, 4 mL glass vials at (1) 60° C./dry heat and (2) 40° C. and 75% relative humidity (RH).
All admixture samples and the control samples stored at the 60° C. and dry heat condition remained as dry powders.
The HPLC traces analyses were conducted on an Agilent 1100 LC, equipped with Agilent Diode Array Detector and Chemstation Software using the conditions found in the table below.

[2] = Comparative pharmacokinetic study of F1 and F2 formulations; type: in vivo, human; settings: 800 mg fixed dose, 23 healthy subjects
Experimental: A comparative pharmacokinetic study in healthy, human subjects was conducted comparing a 200 mg dosage strength of pharmaceutical composition F1 (as described in Example 11) with a 200 mg dosage strength pharmaceutical composition F2 (as described in Example 10).
Pharmaceutical compositions F1 and F2, along with and lansoprazole, were administered orally with approximately 240 mL of water, according to the randomization scheme. Lansoprazole was administered as 30 mg lansoprazole delayed-release capsules.
Subjects were randomized into two groups, A and B. Periods 1 and 2 were conducted as a crossover design under fasting conditions where all subjects received F1 and F2. […] A representative summary of Periods 1, 2, and 3 and the pharmaceutical compositions subjects in groups A and B will receive in each Period is found below.
Subjects were randomized and received 3 out of 4 treatments in one of the following sequences: […] (i.e., Periods 1 and 2 were conducted as a crossover design under fasting conditions [Treatments A and B]). […] Each subject received each of the 3 assigned treatments on one occasion.
Treatment A: 30 mg lansoprazole (1×30 mg capsule), for 9 consecutive days (within ±1 hour of dosing time on Day 1), with 800 mg F1 (4×200 mg capsules) administered under fasting conditions 1.5 hours after administration of lansoprazole on Day 4. […]

[3] = Single-dose food effect study in dogs; type: in vivo; settings: formulation that did not comprise at least one acidulant
Source text: Such food effects can cause difficulty during human testing of drugs as the fed or fasted condition of the patient can cause exposure or bioavailability of drugs to vary widely.

[4] = system: cancer having at least one molecular alteration in one or more of ALK, ROS1, TrkA, TrkB and TrkC; assay: Early clinical studies in humans (antitumor effects); type: in vivo; settings: patients having various forms of cancer
TrkB = TrkB (Homo sapiens, UniProt Q16620); settings: cited from earlier work
Chain of TrkB (Q16620 32-822): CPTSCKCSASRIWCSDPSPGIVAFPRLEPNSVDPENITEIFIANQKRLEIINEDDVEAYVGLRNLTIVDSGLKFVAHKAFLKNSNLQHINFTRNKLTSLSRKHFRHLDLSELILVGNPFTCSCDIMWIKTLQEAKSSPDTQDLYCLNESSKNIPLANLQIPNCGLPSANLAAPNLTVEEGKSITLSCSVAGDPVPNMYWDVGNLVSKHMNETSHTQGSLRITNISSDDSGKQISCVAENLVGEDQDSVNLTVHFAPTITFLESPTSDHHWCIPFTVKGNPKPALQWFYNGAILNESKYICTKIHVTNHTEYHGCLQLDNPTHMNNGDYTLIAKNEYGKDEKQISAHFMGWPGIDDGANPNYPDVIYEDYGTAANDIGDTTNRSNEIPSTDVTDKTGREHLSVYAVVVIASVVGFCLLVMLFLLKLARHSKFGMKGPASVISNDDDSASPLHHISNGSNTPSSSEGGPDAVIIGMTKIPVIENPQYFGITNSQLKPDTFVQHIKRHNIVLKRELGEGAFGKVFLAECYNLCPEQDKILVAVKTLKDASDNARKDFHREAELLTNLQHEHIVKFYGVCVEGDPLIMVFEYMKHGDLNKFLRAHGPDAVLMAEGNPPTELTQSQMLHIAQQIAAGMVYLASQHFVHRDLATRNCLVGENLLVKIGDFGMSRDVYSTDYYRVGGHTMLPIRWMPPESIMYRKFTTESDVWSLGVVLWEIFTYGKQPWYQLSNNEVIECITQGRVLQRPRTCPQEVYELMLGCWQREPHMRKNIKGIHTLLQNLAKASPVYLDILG

TrkC = TrkC (Homo sapiens, UniProt Q16288); settings: cited from earlier work
Chain of TrkC (Q16288 32-839): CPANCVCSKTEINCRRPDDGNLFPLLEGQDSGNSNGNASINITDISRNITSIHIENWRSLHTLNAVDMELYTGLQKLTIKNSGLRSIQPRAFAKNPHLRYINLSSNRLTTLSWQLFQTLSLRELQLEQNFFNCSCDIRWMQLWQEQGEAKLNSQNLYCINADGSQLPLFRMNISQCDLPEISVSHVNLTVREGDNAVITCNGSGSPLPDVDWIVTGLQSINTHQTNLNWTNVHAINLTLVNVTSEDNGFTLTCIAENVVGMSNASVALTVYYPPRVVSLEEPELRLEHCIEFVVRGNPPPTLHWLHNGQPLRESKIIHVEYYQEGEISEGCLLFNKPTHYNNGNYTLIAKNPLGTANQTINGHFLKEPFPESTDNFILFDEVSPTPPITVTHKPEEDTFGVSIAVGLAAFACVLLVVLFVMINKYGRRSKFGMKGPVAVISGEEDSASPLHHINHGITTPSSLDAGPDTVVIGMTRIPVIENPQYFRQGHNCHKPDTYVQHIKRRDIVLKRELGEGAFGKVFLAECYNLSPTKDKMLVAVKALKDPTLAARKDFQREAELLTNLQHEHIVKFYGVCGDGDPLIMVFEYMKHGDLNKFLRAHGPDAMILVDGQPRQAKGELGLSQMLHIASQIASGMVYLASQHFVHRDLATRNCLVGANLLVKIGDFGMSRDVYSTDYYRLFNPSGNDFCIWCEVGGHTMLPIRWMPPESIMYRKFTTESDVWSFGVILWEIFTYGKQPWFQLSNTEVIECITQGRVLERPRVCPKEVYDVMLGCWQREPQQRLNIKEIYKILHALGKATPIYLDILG

ALK = ALK (Homo sapiens, UniProt Q9UM73); settings: cited from earlier work
Chain of ALK (Q9UM73 19-1620): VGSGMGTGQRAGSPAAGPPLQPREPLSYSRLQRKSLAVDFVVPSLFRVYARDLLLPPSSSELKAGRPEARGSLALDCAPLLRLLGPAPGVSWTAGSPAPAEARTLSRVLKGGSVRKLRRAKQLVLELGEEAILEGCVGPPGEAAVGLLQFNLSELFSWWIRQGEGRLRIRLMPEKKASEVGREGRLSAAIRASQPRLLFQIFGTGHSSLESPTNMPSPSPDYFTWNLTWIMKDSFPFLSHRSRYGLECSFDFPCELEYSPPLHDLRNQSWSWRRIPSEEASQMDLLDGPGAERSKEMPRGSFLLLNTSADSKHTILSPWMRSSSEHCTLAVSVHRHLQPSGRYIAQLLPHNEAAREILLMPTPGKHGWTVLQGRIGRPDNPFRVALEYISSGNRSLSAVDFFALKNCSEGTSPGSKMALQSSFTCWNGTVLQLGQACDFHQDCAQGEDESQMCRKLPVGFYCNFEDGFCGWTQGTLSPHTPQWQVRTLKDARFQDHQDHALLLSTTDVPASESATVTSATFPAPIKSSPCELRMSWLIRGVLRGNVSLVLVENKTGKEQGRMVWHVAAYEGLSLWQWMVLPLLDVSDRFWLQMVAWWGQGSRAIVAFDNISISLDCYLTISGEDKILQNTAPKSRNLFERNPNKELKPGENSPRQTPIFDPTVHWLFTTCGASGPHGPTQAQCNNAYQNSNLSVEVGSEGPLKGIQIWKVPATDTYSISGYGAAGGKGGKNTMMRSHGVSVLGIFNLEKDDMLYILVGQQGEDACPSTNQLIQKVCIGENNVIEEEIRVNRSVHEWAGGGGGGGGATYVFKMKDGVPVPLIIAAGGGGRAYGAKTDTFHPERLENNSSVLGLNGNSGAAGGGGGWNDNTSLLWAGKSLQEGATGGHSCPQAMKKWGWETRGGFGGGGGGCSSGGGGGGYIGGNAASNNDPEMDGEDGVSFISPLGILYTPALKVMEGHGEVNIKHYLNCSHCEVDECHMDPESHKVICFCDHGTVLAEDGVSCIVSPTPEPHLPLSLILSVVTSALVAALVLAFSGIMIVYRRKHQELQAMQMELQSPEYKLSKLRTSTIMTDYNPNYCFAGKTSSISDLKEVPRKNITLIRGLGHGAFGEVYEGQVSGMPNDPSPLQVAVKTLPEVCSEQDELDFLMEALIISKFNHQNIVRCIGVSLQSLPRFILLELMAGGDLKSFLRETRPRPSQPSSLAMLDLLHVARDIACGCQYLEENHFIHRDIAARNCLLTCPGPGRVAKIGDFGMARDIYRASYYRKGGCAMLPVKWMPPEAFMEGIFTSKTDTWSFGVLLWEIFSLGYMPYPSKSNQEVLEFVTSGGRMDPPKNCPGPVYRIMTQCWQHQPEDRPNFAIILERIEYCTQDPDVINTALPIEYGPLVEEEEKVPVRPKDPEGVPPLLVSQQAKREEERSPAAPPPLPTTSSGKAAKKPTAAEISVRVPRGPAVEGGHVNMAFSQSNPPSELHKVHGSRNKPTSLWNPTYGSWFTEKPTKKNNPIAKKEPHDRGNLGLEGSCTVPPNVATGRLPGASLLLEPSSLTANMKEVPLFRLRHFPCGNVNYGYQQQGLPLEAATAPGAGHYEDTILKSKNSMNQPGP

[5] = Early clinical studies in humans, formulation without acidulant (exposure); settings: for AUC higher when taken with food: formulation without acidulant

Structure (SMILES): CN1CCN(c2ccc(C(=O)Nc3n[nH]c4ccc(Cc5cc(F)cc(F)c5)cc34)c(NC3CCOCC3)c2)CC1 [N-[5-(3,5-difluorobenzyl)-1H-indazol-3-yl]-4-(4-methyl-piperazin-1-yl)-2-(tetrahydro-pyran-4-ylamino)-benzamide]
- Most abundant impurity (area %) ([1]; 40° C./75% RH, listed as Control): 0.13%
- Most abundant impurity (area %) ([1]; 60° C. Dry Heat): 0.13%
- physical state observed ([1]; 13 days of storage, 40° C. and 75% RH): remained dry
- correlation of total exposure with body weight or body surface area [2]: did not correlate with body weight or body surface area
- exposure levels, fed compared to fasting conditions [3]: approximately 2 fold
- antitumor effects [4]: antitumor effects
- inhibition (TrkB): potent inhibitor
- inhibition (TrkC): potent inhibitor
- inhibition (ALK): potent inhibitor
- AUC higher when taken with food ([5]; 200 mg/m^2/day): approximately 200%
- AUC higher when taken with food ([5]; 400 mg/m^2/day): ~50%
- Cmax higher with food ([5]; both doses (200 and 400 mg/m^2/day)): approximately 150%
- exposures with concomitant proton pump inhibitor drugs (PPIs), such as lansoprazole ([5]; some patients): variable
